Assays:
[1] = test system: Phakopsora pachyrhizi; test: Phakopsora pachyrhizi test on soybean, preventive, greenhouse; type: in vivo; conditions: preventive spray on soybean, inoculated one day after treatment, read-out: control (efficacy, disease severity) compared to the untreated check
Method in brief: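 Preventive protocol: plants inoculated with a 2×10^5 P. pachyrhizi conidial suspension one day after spray application at the stated rate, then incubated at 22-24 °C and 80-90% RH. Compound was applied from 2% DMSO/acetone diluted in emulsified water.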

[2] = test system: Alternaria solani; test: Alternaria solani (early blight of tomato/potato) mycelial radial growth on potato dextrose agar; type: cell-based; conditions: 168 h, 25° C., seven days, read-out: control compared to the untreated check
Protocol: (§1) The compounds were dissolved in 0.3% dimethyl sulfoxide and then added to potato dextrose agar medium just prior to dispensing it into petri dishes. 5 mL medium, with the compound in the desired concentration, was dispensed into 60 mm sterile petri-plates. After solidification, each plate was seeded with a 5 mm size mycelial disc taken from the periphery of an actively growing virulent culture plate. The plates were incubated in growth chambers at 25° C. temperature and 60% relative humidity for seven days and the radial growth was measured and compared to the one of the untreated control.

[3] = test system: Parastagonospora nodorum; test: Parastagonospora nodorum (PARANO) spore growth inhibition in liquid medium, 96-well microtiter plate, OD 600; type: cell-based; conditions: spore suspension in PDB liquid medium, 18° C., 5-6 days, OD at 600, read-out: control compared to the untreated check
Method in brief: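 Read-out is percent growth inhibition from OD at 600 after 5-6 days at 18° C. Compounds, dissolved in DMSO, were diluted in potato dextrose broth and combined in equal volume with a 10^5 spores/ml suspension of PARANO.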

[4] = test system: Phytophthora infestans; test: microbe, parasite or virus in culture; type: cell-based; conditions: 168 h, read-out: control compared to the untreated check
[5] = test system: Colletotrichum capsici; test: Colletotrichum capsici (anthracnose) mycelial radial growth on potato dextrose agar; type: cell-based; conditions: Colletotrichum truncatum, 168 h, 25° C., seven days, read-out: control compared to the untreated check
Method in brief: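 Compounds in 0.3% DMSO were mixed into potato dextrose agar, and each plate was seeded with a 5 mm mycelial disc from an actively growing culture. Plates were incubated at 25° C and 60% relative humidity for seven days. Radial growth was compared with untreated control.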

[6] = test system: Alternaria solani; test: Alternaria solani test in tomato, preventive, greenhouse; type: in vivo; conditions: preventive spray on tomato, inoculated one day after treatment, read-out: control (efficacy, disease severity) compared to the untreated check
Protocol: The respective compound was dissolved in 2% dimethyl sulfoxide/acetone and then mixed with water containing an emulsifier to the calibrated spray volume of 30 mL. Each spray solution was poured into a spray bottle for further application.
To test the preventive activity of a compound, healthy young tomato plants, raised in the greenhouse, were sprayed with the active compound preparation at the stated application rate inside the spray cabinets using hollow cone nozzles. One day after treatment, the plants were inoculated with a spore suspension containing 0.24×10^6 Alternaria solani inoculum. The inoculated plants were then kept in a greenhouse chamber at 22-24° C. temperature and 90-95% relative humidity for disease expression.
A visual assessment of the compound's performance was carried out by rating the disease severity (0 100% scale) on treated plants 3, 7, 10 and 15 days after application. Efficacy (% control) of the compound was calculated by comparing the disease rating in the treatment with the one of the untreated control. The treated plants were also assessed for plant damage by recording symptoms like necrosis, chlorosis and stunting.

[7] = test system: Pyricularia oryzae; test: microbe, parasite or virus in culture; type: cell-based; conditions: 168 h, read-out: control compared to the untreated check
[8] = test system: Botrytis cinerea; test: Botrytis cinerea test on tomato, preventive, greenhouse; type: in vivo; conditions: preventive spray on bean/chili plants (heading: tomato), inoculated one day after treatment, read-out: control (efficacy, disease severity) compared to the untreated check
[9] = test system: Phytophthora infestans; test: whole plant or invertebrate; type: in vivo, Phytophthora infestans on tomato; conditions: in Solanum lycopersicum, read-out: control (efficacy, disease severity) compared to the untreated check
[10] = test system: Botrytis cinerea; test: Botrytis cinerea liq. (BOTRCI) spore growth inhibition in liquid medium, 96-well microtiter plate, OD 405 nm; type: cell-based; conditions: spore suspension in YBA liquid medium, 22° C., 5-6 days, OD at 405 nm, read-out: control compared to the untreated check
Method in brief: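 Spore suspension of B. cinerea (10^4 spores/ml) in YBA liquid medium mixed 1:1 with compound diluted from DMSO. Incubated at 22° C. for 5-6 days. Growth read as OD 405 nm; percent inhibition derived from treatment, untreated-control and blank readings.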

[11] = test system: Venturia Inequalis; test: Venturia inequalis (VENTIN) spore growth inhibition in liquid medium, 96-well microtiter plate, OD 600; type: cell-based; conditions: spore suspension in PDB liquid medium, 18° C., 15-18 days, OD at 600, read-out: control compared to the untreated check
Protocol: Potato dextrose (PDB) liquid medium containing a VENTIN (10^5 spores/ml) spore suspension was prepared. For the inhibition assay, each test compound was solved in dimethyl sulfoxide. 100 μl of the test compound in media-solution was added to a 96-well microtiter plate, consequently, the same volume (100 μl) of spore suspension was added to the well making the final test concentrations and the treated plate was incubated at 18° C. for 15-18 days. The growth inhibition was evaluated by measuring the OD at 600. Percent inhibition was calculated with the below formula: […]

[12] = test system: Botrytis cinerea; test: Botrytis cinerea (gray mold) mycelial radial growth on potato dextrose agar; type: cell-based; conditions: 168 h, 22° C., seven days, read-out: control compared to the untreated check
Protocol: as §1, with “22°” for “25°”, “90%” for “60%”

CC(C)CC(C)(Cc1ccccc1)NC(=O)c1cnc2[nH]ccc2c1 (stereo not drawn) [Compound 28, N-(2,4-dimethyl-1-phenylpentan-2-yl)-1H-pyrrolo[2,3-b] pyridine-5-carboxamide]
≥ 70%: pest or weed control at 500 ppm [1] | inhibition of growth at 300 ppm [2] | inhibition of growth at 300 ppm [3] | inhibition of growth at 300 ppm [4] | inhibition of growth at 300 ppm [5]

Cn1ccc2cc(C(=O)NC(C)(C)Cc3cccc(F)c3)cnc21 [Compound 21, N-(1-(3-fluorophenyl)-2-methylpropan-2-yl)-1-methyl-1H-pyrrolo[2,3-b]pyridine-5-carboxamide]
≥ 70%: pest or weed control at 500 ppm [6] | pest or weed control at 500 ppm [1] | inhibition of growth at 300 ppm [7] | inhibition of growth at 300 ppm [5]

Cn1ccc2cc(C(=O)NC(C)(C)Cc3ccccc3Br)cnc21 [Compound 26]
≥ 70%: pest or weed control at 500 ppm [6] | pest or weed control at 500 ppm [1] | inhibition of growth at 300 ppm [3]

Cn1ccc2cc(C(=O)NC(C)(C)Cc3ccccc3)cnc21 [Compound 1, 1-methyl-N-(2-methyl-1-phenylpropan-2-yl)-1H-pyrrolo[2,3-b]pyridine-5-carboxamide]
≥ 70%: pest or weed control at 500 ppm [1] | inhibition of growth at 300 ppm [2] | pest or weed control at 500 ppm [8] | inhibition of growth at 300 ppm [7] | inhibition of growth at 300 ppm [5]

CCC(O)(CC)C(NC(=O)c1cnc2c(ccn2C)c1)c1ccc(F)cc1 (stereo not drawn) [Compound 131, N-(2-ethyl-1-(4-fluorophenyl)-2-hydroxybutyl)-1-methyl-1H-pyrrolo[2,3-b]pyridine-5-carboxamide]
≥ 70%: pest or weed control at 500 ppm [6] | pest or weed control at 500 ppm [1] | inhibition of growth at 300 ppm [7]

Cn1cc(C2CC2)c2cc(C(=O)NC(C)(C)Cc3ccccc3Cl)cnc21 [Compound 85, N-(1-(2-chlorophenyl)-2-methylpropan-2-yl)-3-cyclopropyl-1-methyl-1H-pyrrolo[2,3-b]pyridine-5-carboxamide]
≥ 70%: pest or weed control at 500 ppm [1] | inhibition of growth at 300 ppm [2] | pest or weed control at 500 ppm [9] | inhibition of growth at 300 ppm [7] | inhibition of growth at 300 ppm [3]

Cn1cc(Cl)c2cc(C(=O)NC(C)(C)Cc3ccccc3F)cnc21 [Compound 59, 3-chloro-N-(1-(2-fluorophenyl)-2-methylpropan-2-yl)-1-methyl-1H-pyrrolo[2,3-b]pyridine-5-carboxamide]
≥ 70%: pest or weed control at 500 ppm [6] | pest or weed control at 500 ppm [1] | inhibition of growth at 300 ppm [7]

C=C(C)CC(C)(Cc1ccccc1F)NC(=O)c1cnc2cc[nH]c2c1 (stereo not drawn) [Compound 144, N-(1-(2-fluorophenyl)-2,4-dimethylpent-4-en-2-yl)-1H-pyrrolo[3,2-b] pyridine-6-carboxamide]
≥ 70%: inhibition of growth at 300 ppm [10] | pest or weed control at 500 ppm [1] | inhibition of growth at 300 ppm [2] | pest or weed control at 500 ppm [9] | pest or weed control at 500 ppm [8] | inhibition of growth at 300 ppm [11] | inhibition of growth at 300 ppm [12] | inhibition of growth at 300 ppm [3] | inhibition of growth at 300 ppm [4] | inhibition of growth at 300 ppm [5]

Cn1ccc2cc(C(=O)NC(C)(C)Cc3ccccc3F)cnc21 [Compound 13, N-(1-(2-fluorophenyl)-2-methylpropan-2-yl)-1-methyl-1H-pyrrolo[2,3-b]pyridine-5-carboxamide]
≥ 70%: inhibition of growth at 300 ppm [10] | inhibition of growth at 300 ppm [2] | inhibition of growth at 300 ppm [7] | inhibition of growth at 300 ppm [3] | inhibition of growth at 300 ppm [4] | inhibition of growth at 300 ppm [5]

Cn1ccc2cc(C(=O)NC(C)(C)Cc3ccc(Cl)cc3F)cnc21 [Compound 47, N-(1-(4-chloro-2-fluorophenyl)-2-methylpropan-2-yl)-1-methyl-1H-pyrrolo[2,3-b]pyridine-5-carboxamide]
≥ 70%: pest or weed control at 500 ppm [1] | inhibition of growth at 300 ppm [2] | pest or weed control at 500 ppm [9] | inhibition of growth at 300 ppm [11] | inhibition of growth at 300 ppm [7] | inhibition of growth at 300 ppm [3]

Cn1ccc2cc(C(=O)NC(C)(C)C(C)(C)c3ccccc3)cnc21 [Compound 5, N-(2,3-dimethyl-3-phenylbutan-2-yl)-1-methyl-1H-pyrrolo[2,3-b]pyridine-5-carboxamide]
≥ 70%: pest or weed control at 500 ppm [1] | inhibition of growth at 300 ppm [2] | inhibition of growth at 300 ppm [3]

Cn1ccc2cc(C(=O)NC3(Cc4ccccc4)CCCCC3)cnc21 [Compound 11, N-(1-benzylcyclohexyl)-1-methyl-1H-pyrrolo[2,3-b]pyridine-5-carboxamide]
≥ 70%: inhibition of growth at 300 ppm [2] | inhibition of growth at 300 ppm [7] | inhibition of growth at 300 ppm [3] | inhibition of growth at 300 ppm [5]

CC(C)CC(C)(Cc1ccccc1)NC(=O)c1cnc2c(c1)c(Br)cn2C (stereo not drawn) [Compound 51, 3-bromo-N-(2,4-dimethyl-1-phenylpentan-2-yl)-1-methyl-1H-pyrrolo[2,3-b]pyridine-5-carboxamide]
≥ 70%: pest or weed control at 500 ppm [6] | pest or weed control at 500 ppm [1] | inhibition of growth at 300 ppm [7]

CC(c1ccccc1Cl)C(C)(C)NC(=O)c1cnc2c(ccn2C)c1 (stereo not drawn) [Compound 7, N-(3-(2-chlorophenyl)-2-methylbutan-2-yl)-1-methyl-1H-pyrrolo[2,3-b]pyridine-5-carboxamide]
≥ 70%: inhibition of growth at 300 ppm [2] | inhibition of growth at 300 ppm [7] | inhibition of growth at 300 ppm [3]

Cn1ccc2cc(C(=O)NC3(Cc4ccccc4)CCCC3)cnc21 [Compound 10, N-(1-benzylcyclopentyl)-1-methyl-1H-pyrrolo[2,3-b]pyridine-5-carboxamide]
≥ 70%: pest or weed control at 500 ppm [1] | inhibition of growth at 300 ppm [2] | pest or weed control at 500 ppm [9] | inhibition of growth at 300 ppm [3] | inhibition of growth at 300 ppm [4] | inhibition of growth at 300 ppm [5]

Cn1ccc2cc(C(=O)NC3(Cc4cccc(Cl)c4)CCCCC3)cnc21 [Compound 12, N-(1-(3-chlorobenzyl)cyclohexyl)-1-methyl-1H-pyrrolo[2,3-b]pyridine-5-carboxamide]
≥ 70%: inhibition of growth at 300 ppm [2] | inhibition of growth at 300 ppm [7] | inhibition of growth at 300 ppm [5]

Cn1ccc2cc(C(=O)NC(C)(C)Cc3cc(F)cc(F)c3)cnc21 [Compound 15, N-(1-(3,5-difluorophenyl)-2-methylpropan-2-yl)-1-methyl-1H-pyrrolo[2,3-b]pyridine-5-carboxamide]
≥ 70%: pest or weed control at 500 ppm [6]

Cn1ccc2cc(C(=O)NC(C)(C)Cc3cccc(C(F)(F)F)c3)cnc21 [Compound 14, 1-methyl-N-(2-methyl-1-(3-(trifluoromethyl)phenyl)propan-2-yl)-1H-pyrrolo[2,3-b]pyridine-5-carboxamide]
≥ 70%: inhibition of growth at 300 ppm [10] | inhibition of growth at 300 ppm [2]
